Laboratory results from patent US20040072839A1, “1-Phenylalkylpiperazines” (priority 2002, published 2004).
Like-named read-outs stand apart in the source and are kept apart here.

How the values were obtained:
[1] = target: T1, human 5-HT1A-serotonergic receptor (Homo sapiens, UniProt P08908); assay: Radioligand binding to recombinant 5-HT1A receptors ([3H]8-OH-DPAT, HeLa cell membranes); conditions: 1 nM [3H]8-OH-DPAT; Ki from IC50 by Cheng & Prusoff; read-out: Ki, binding affinity for 5-HT1A receptors
T1 construct: expressed in transfected cells; host or cells: HeLa (human), stably transfected; membrane preparation
T1 sequence (P08908 1-422): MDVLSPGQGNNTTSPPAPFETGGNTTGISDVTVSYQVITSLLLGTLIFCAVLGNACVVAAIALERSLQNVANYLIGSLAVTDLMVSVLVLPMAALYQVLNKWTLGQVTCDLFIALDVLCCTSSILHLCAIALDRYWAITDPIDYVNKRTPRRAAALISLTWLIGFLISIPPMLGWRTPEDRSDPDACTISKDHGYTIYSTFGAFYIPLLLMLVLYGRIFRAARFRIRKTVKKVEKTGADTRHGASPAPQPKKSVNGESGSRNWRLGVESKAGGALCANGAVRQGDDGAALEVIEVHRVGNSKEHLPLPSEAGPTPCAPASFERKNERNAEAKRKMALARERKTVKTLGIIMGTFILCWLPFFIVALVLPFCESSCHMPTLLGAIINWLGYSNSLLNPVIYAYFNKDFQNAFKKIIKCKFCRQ
Protocol: Genomic clone coding for the human 5-HT1A-serotonergic receptor was stably transfected in a human cell line (HeLa). HeLa cells were grown as monolayers in Dulbecco's modified Eagle medium (DMEM), containing 10% foetal bovine serum, gentamycin (0.1 mg/ml) and 5% carbon dioxide, at 37° C. The cells were detached from the growth flask at 95% confluence by a cell scraper and were lysed in cold 5 mM Tris and 5 mM EDTA buffer (pH 7.4). The homogenates were centrifuged at 40000×g×20 minutes and the pellets were resuspended in a small volume of cold 5 mM Tris and 5 mM EDTA buffer (pH 7.4) and immediately frozen and stored at −70° C. until use. On the day of experiment, the cell membranes were resuspended in incubation buffer: 50 mM Tris HCl (pH 7.4), 2.5 mM MgCl2, […] (Fargin et al., Nature 335, 358-360, 1988). The membranes were incubated in a final volume of 1 ml for 30 minutes at 30° C. with 1 nM [^3H]8-OH-DPAT, in the absence or presence of the test compounds. Non-specific binding was determined in the presence of 10 μM 5-HT. Incubation was stopped by addition of cold Tris-HC1 buffer and rapid filtration through a 0.2%-polyethyleneimine-pretreated Whatman-GF/B or Schleicher-&-Schuell-GF52 filter.
The affinities of the tested compounds were evaluated as inhibition of specific binding of the radioligand to 5-HT1A receptors (IC50) by using the non-linear curve-fitting program Allfit (De Lean et al., Am. J. Physiol. 235, E97-E102 (1978). The IC50 value was converted to an affinity constant (Ki) by the equation of Cheng & Prusoff (Cheng Y. C., Prusoff W. H., Biochem. Pharmacol. 22, 3099-3108 (1973)).

[2] = test system: rhythmic bladder-voiding contractions in anaesthetised rats; assay: Rhythmic bladder-voiding contractions induced by bladder filling in anaesthetised rats; format: in vivo, rat; conditions: intravenous administration; for ED50: Rattus norvegicus
Protocol: Female Sprague-Dawley rats weighing 225-275 g (Crl: CD® (SD) IGS BR, Charles River Italia) were used. The animals were housed with free access to food and water and maintained on a forced 12-hour alternating light-dark cycle at 22-24° C. for at least one week, except during the experiment. The activity on rhythmic bladder voiding contractions was evaluated according to the method of Dray (Dray J., Pharmacol. Methods, 13:157, 1985), with some modifications as in Guarneri (Guarneri, Pharmacol. Res. 27:173, 1993). Briefly, rats were anaesthetised by subcutaneous injection of 1.25 g/kg (5 ml/kg) urethane, after which the urinary bladder was catheterised via the urethra using PE 50 polyethylene tubing filled with physiological saline. The catheter was tied in place with a ligature around the external urethral orifice and was connected to conventional pressure transducers (Statham P23 ID/P23 XL). […] The bladder was then filled via the recording catheter by incremental volumes of warm (37° C.) saline until reflex bladder-voiding contractions occurred (usually 0.8-1.5 ml). For intravenous injection of bioactive compounds, PE 50 polyethylene tubing filled with physiological saline was inserted into the jugular vein.
From the cystometrogram, the number of contractions recorded 15 minutes before (basal values) and after treatment, as well as the mean amplitude of these contractions (mean height of the peaks in mmHg), was evaluated.
Since most compounds produced an effect that was relatively rapid in onset and lead to a complete cessation of bladder contractions, bioactivity was conveniently estimated by measuring the duration of bladder quiescence (i.e., the length of the time during which no contractions occured). The number of tested animals showing a reduction in the number of contractions higher than 30% of that observed in the basal period was also recorded.
To compare the potency of the tested compounds for inhibiting the bladder voiding contractions, equieffective doses that result in the disappearance of contractions for a time of 10 minutes (ED10min) were computed by means of linear regression using the least square method. The extrapolated doses which induces a reduction in the number of contractions greater than 30% in 50% of the treated rats (ED50) was evaluated by the method of Bliss (Bliss C. I., Quart J. Pharm. Pharmacol. 11, 192-216, 1938).
Data represent the ED10min values (the extrapolated dose inducing 10 minutes of disappearance of the contractions), the ED50 (frequency) values (the extrapolated doses inducing a reduction of the number of contractions >30% in 50% of treated rats), and the ED50 (amplitude) values (the extrapolated doses inducing a 30% reduction of amplitude of the contractions in 50% of treated rats).

5-HT1A receptors = target: T2, 5-HT1A receptors (Rattus norvegicus, UniProt P19327); assay: Inhibition of stereotypy (rhythmic forepaw treading) induced by 8-OH-DPAT in rats (post-synaptic antagonism); format: in vivo; conditions: for % Inhibition of forepaw treading, 1 h / % Inhibition of forepaw treading, 4 h: 10 mg/kg p.o.; for % Inhibition of forepaw treading, 1 h: given 1 h before 8-OH-DPAT (1 mg/kg s.c.); for % Inhibition of forepaw treading, 4 h: given 4 h before 8-OH-DPAT (1 mg/kg s.c.)
T2 construct: stereotyped forepaw treading induced in rats by subcutaneous injection of 8-OH-DPAT; from tissue; host or cells: whole animal (male Sprague-Dawley rats), endogenous post-synaptic receptors
T2 sequence (P19327 1-422): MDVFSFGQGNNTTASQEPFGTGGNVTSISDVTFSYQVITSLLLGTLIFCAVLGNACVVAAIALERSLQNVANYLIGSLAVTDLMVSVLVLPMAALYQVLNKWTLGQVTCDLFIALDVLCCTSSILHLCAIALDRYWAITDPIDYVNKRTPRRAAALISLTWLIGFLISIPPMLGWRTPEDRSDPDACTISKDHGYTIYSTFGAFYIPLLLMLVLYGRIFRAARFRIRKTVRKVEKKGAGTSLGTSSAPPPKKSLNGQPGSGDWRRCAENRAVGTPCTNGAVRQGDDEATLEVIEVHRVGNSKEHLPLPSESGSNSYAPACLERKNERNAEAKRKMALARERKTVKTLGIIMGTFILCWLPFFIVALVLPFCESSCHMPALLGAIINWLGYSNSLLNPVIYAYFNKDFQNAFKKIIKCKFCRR
Protocol: The inhibitory effect of 5-HT1A-receptor antagonists on stereotyped forepaw treading induced in rats by subcutaneous injection of 8-OH-DPAT was evaluated by the method of Tricklebank (Tricklebank et al., Eur. J. Pharmacol., 117: 15, 1985) with minor modifications as described below.
Male Sprague-Dawley rats[Crl: CD® (SD) IGS BR] weighing 150-175 g from Charles River Italia were used. The animals were housed with free access to food and water and maintained on a forced 12-hour-light/12-hour-dark cycle at 22-24° C. of temperature. On the day of the experiment, the rats were placed singly in clear plastic containers, 10-15 minutes before administration of the vehicle or compounds to be tested. For evaluation of antagonistic activity after oral administration, the compounds were administered 1 and 4 hours before induction of stereotypy by 8-OH-DPAT (1 mg/kg subcutaneously). Observation sessions last 30 seconds and were begun 3 minutes after 8-OH-DPAT treatment and repeated every 3 minutes over a period of 15 minutes.
The appearance of the symptom induced by postsynaptic stimulation of 5-HT1A receptors was noted, and the intensity was scored using an intensity scale in which: 0=absent, 1=equivocal, 2=present and 3=intense. Behavioural scores for treated rats were accumulated throughout the observation time (5 observation periods) and expressed as mean values of 4 rats/dose. Change in mean values of treated animals in comparison with control (vehicle) group, expressed as per-cent inhibition, were used to quantify the antagonistic activity.

[3] = urethane-anaesthetised female rats, read-out: ED50 (frequency) (extrapolated dose inducing a reduction of the number of contractions >30% in 50% of treated rats)
[4] = urethane-anaesthetised female rats

`COc1ccccc1N1CCN(CC[C@H](c2ccccc2F)[C@@H](OC(C)=O)C2CCCCC2)CC1` (racemic) [Example 45, (RS,SR) 1-[4-Acetoxy-4-cyclohexyl-3-(2-fluorophenyl)butyl]-4-(2-methoxyphenyl)piperazine] was tested, and the Ki [1] was 0.54 nM, the ED50 [2, 3] was 0.127 mg/kg and the “ED10 min (extrapolated dose inducing 10 minutes of disappearance of the contractions)” value (“ED10 min” for short) [2, 4] was 0.584 mg/kg. The “% Inhibition of forepaw treading, 1 h” value (5-HT1A receptors) was 100%, the “% Inhibition of forepaw treading, 4 h” value (5-HT1A receptors) was 81% and the “inhibition of stereotypy induced by 8-OH-DPAT (in words)” value (5-HT1A receptors; oral administration) was “potent and long-lasting inhibition”.
In the case of `CC#CC(O)C(CCN1CCN(c2cccc3c2OCCO3)CC1)c1ccccc1` (stereo not shown) [Example 31, 1-[5-(2,3-Dihydro-1,4-benzodioxinyl)]-4-(4-hydroxy-3-phenylhept-5-ynyl)piperazine], the Ki [1] is reported as 2.71 nM, the “% Inhibition of forepaw treading, 1 h” value (5-HT1A receptors) is reported as 60% and the “% Inhibition of forepaw treading, 4 h” value (5-HT1A receptors) is reported as 18%.
With `COc1cc(F)ccc1N1CCN(CCC(c2ccccc2C#N)C(O)C2CCCCC2)CC1` (stereo not shown) [Example 16, 1-[3-(2-Cyanophenyl)-4-cyclohexyl-4-hydroxybutyl]-4-(4-fluoro-2-methoxyphenyl)piperazine] the Ki [1] was 0.9 nM, the “% Inhibition of forepaw treading, 1 h” value (5-HT1A receptors) was 40% and the “% Inhibition of forepaw treading, 4 h” value (5-HT1A receptors) was 17%.
In the case of `CN1CC[C@]23c4c5ccc(O)c4O[C@H]2[C@@H](O)C=C[C@H]3[C@H]1C5` [Morphine], the ED50 [2, 3] is reported as 0.03 mg/kg and the “ED10 min” value [2, 4] is reported as 0.05 mg/kg.
With `CCN(CC)CC#CCOC(=O)C(O)(c1ccccc1)C1CCCCC1` (stereo not shown) [Oxybutynin] the ED50 [2, 3] was greater than 10 mg/kg, the ED50 ([2]; n.a. = not active, no significant reduction of the height of the peaks, read-out: ED50 (amplitude) (extrapolated dose inducing a 30% reduction of amplitude of the contractions in 50% of treated rats)) was 0.24 mg/kg and the “ED10 min” value [2, 4] was 7.77 mg/kg.
For `CCNC(=O)O[C@@H](C1CCCCC1)[C@H](CCN1CCN(c2ccccc2OC)CC1)c1ccccc1F` (racemic) [Example 47, (RS,SR) 1-[4-Cyclohexyl-4-ethylaminocarbonyloxy-3-(2-fluorophenyl)butyl]-4-(2-methoxyphenyl)piperazine], the Ki [1] was 0.85 nM, the “% Inhibition of forepaw treading, 1 h” value (5-HT1A receptors) was 56% and the “% Inhibition of forepaw treading, 4 h” value (5-HT1A receptors) was 58%.
`COc1ccccc1N1CCN(CC[C@H](c2ccccc2F)[C@@H](OC(N)=O)C2CCCCC2)CC1` (racemic) [Example 48, (RS,SR) 1-[4-Aminocarbonyloxy-4-cyclohexyl-3-(2-fluorophenyl)butyl]-4-(2-methoxyphenyl)piperazine] was tested, and the Ki [1] was 0.36 nM, the “% Inhibition of forepaw treading, 1 h” value (5-HT1A receptors) was 90% and the “% Inhibition of forepaw treading, 4 h” value (5-HT1A receptors) was 74%.
For `CCOC(C1CCCCC1)C(CCN1CCN(c2cccc3c2OCCO3)CC1)c1ccccc1` (stereo not shown) [Example 19, 1-(4-Cyclohexyl-4-ethoxy-3-phenylbutyl)-4-[5-(2,3-dihydro-1,4-benzodioxinyl)]piperazine], the Ki [1] was 0.69 nM.
For `COC(C1CCCCC1)C(CCN1CCN(c2cccc3c2OCCO3)CC1)c1ccccc1` (stereo not shown) [Example 17, 1-(4-cyclohexyl-4-methoxy-3-phenylbutyl)-4-[5-(2,3-dihydro-1,4-benzodioxinyl)]piperazine], the Ki [1] was 0.64 nM.
Compound `CCOC(C1CCCCC1)C(CCN1CCN(c2ccc(F)cc2OC)CC1)c1ccccc1` (stereo not shown) [Example 20, 1-(4-Cyclohexyl-4-ethoxy-3-phenylbutyl)-4-(4-fluoro-2-methoxyphenyl)piperazine] has a Ki [1] of 3.19 nM.
With `COC(C)C(CCN1CCN(c2cccc3c2OCCO3)CC1)c1ccccc1` (stereo not shown) [Example 11, 1-[5-(2,3-Dihydro-1,4-benzodioxinyl)]-4-[(4-methoxy-3-phenyl)pentyl]piperazine] the Ki [1] was 3.65 nM.
Compound `CCCC(O)C(CCN1CCN(c2cccc3c2OCCO3)CC1)c1ccccc1` (stereo not shown) [Example 27] has a Ki [1] of 1.09 nM.
